Measurements taken from patent publication US6737383B1, “Herbicidal oxadiazolidines” (priority 1999, dated 2004).

What was measured:
blackgrass = experiment: Test B pre/postemergence blackgrass; format: in vivo, Alopecurus myosuroides
In short: (§1)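 Response is a visual 0-to-10 score relative to untreated plants, where 0 means no effect and 10 means complete control, taken twelve to sixteen days after application. Treatments went onto soil at planting and onto foliage of 1- to 4-leaf plants, using a surfactant-containing non-phytotoxic solvent.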

pigweed = experiment: Test B pre/postemergence pigweed; format: in vivo, Amaranthus retroflexus
In short: as §1

rape = experiment: Test B pre/postemergence rape; format: in vivo, Brassica napus
In short: as §1

crabgrass = experiment: Test B pre/postemergence crabgrass; format: in vivo, Digitaria sanguinalis
In short: as §1

wild oat = experiment: Test B pre/postemergence wild oat; format: in vivo, Avena fatua
In short: as §1

sugar beet = experiment: Test B pre/postemergence sugar beet; format: in vivo, Beta vulgaris
In short: as §1

cocklebur = experiment: Test B pre/postemergence cocklebur; format: in vivo, Xanthium strumarium
In short: as §1

morningglory = experiment: Test B pre/postemergence morningglory; format: in vivo, Ipomoea hederacea
In short: as §1

surinam grass = experiment: Test B pre/postemergence surinam grass; format: in vivo, Brachiaria decumbens
In short: as §1

purple nutsedge = experiment: Test B pre/postemergence purple nutsedge; format: in vivo, Cyperus rotundus
In short: as §1

wheat = experiment: Test B pre/postemergence wheat; format: in vivo, Triticum aestivum
In short: as §1

corn = experiment: Test B pre/postemergence corn; format: in vivo, Zea mays
In short: as §1

soybean = experiment: Test B pre/postemergence soybean; format: in vivo, Glycine max
In short: as §1

bedstraw = experiment: Test B pre/postemergence bedstraw; format: in vivo, Galium aparine
In short: as §1

giant foxtail = experiment: Test B pre/postemergence giant foxtail; format: in vivo, Setaria faberii
In short: as §1

velvetleaf = experiment: Test B pre/postemergence velvetleaf; format: in vivo, Abutilon theophrasti
In short: as §1

[1] = Postemergence, Rate 62 g/ha, scale 0 to 10, 0 is no effect, 10 is complete control
[2] = Postemergence, Rate 125 g/ha, scale of 0 to 10 where 0 is no effect and 10 is complete control
[3] = Preemergence, Rate 62 g/ha, scale of 0 to 10 where 0 is no effect and 10 is complete control
[4] = Preemergence, Rate 125 g/ha, scale of 0 to 10 where 0 is no effect and 10 is complete control
[5] = Preemergence, Rate 250 g/ha, scale 0 (no effect) to 10 (complete control)
[6] = Preemergence, Rate 500 g/ha, scale of 0 to 10 where 0 is no effect and 10 is complete control
[7] = Rate 250 g/ha, Postemergence, scale 0 to 10, 0 is no effect, 10 is complete control
[8] = Rate 500 g/ha, Postemergence, scale 0 to 10, 0 is no effect, 10 is complete control

CC(C)N(C(=O)n1oc(=O)n(C[C@H](C)Cl)c1=O)c1ccc(F)cc1F [Compound 714]
Plant response rating, Blackgrass (blackgrass; [1]): 7
Blackgrass plant response rating (blackgrass; [2]): 7
Blackgrass plant response rating (blackgrass; [3]): 7
Plant response rating, Blackgrass (blackgrass; [4]): 8
Blackgrass plant response rating (blackgrass; [5]): 9
Plant response rating, Blackgrass (blackgrass; [6]): 9
Blackgrass plant response rating (blackgrass; [7]): 6
Blackgrass plant response rating (blackgrass; [8]): 7
Plant response rating, Redroot pigweed (pigweed; [1]): 5
Redroot pigweed plant response rating (pigweed; [2]): 8
Redroot pigweed plant response rating (pigweed; [3]): 10
Plant response rating, Redroot pigweed (pigweed; [4]): 9
Redroot pigweed plant response rating (pigweed; [5]): 10
Redroot pigweed plant response rating (pigweed; [7]): 9
Redroot pigweed plant response rating (pigweed; [8]): 9
Plant response rating, Rape (rape; [1]): 5
Rape plant response rating (rape; [2]): 5
Rape plant response rating (rape; [3]): 2
Plant response rating, Rape (rape; [4]): 3
Rape plant response rating (rape; [5]): 6
Rape plant response rating (rape; [7]): 8
Rape plant response rating (rape; [8]): 9
Plant response rating, Crabgrass (crabgrass; [1]): 4
Crabgrass plant response rating (crabgrass; [2]): 9
Crabgrass plant response rating (crabgrass; [3]): 10
Plant response rating, Crabgrass (crabgrass; [4]): 10
Crabgrass plant response rating (crabgrass; [5]): 10
Crabgrass plant response rating (crabgrass; [7]): 9
Crabgrass plant response rating (crabgrass; [8]): 9
Plant response rating, Wild oats (wild oat; [1]): 0
Wild oats plant response rating (wild oat; [2]): 0
Wild oats plant response rating (wild oat; [3]): 0
Plant response rating, Wild oats (wild oat; [4]): 4
Wild oats plant response rating (wild oat; [5]): 6
Wild oats plant response rating (wild oat; [7]): 4
Wild oats plant response rating (wild oat; [8]): 9
Plant response rating, Sugarbeets (sugar beet; [1]): 0
Sugarbeets plant response rating (sugar beet; [2]): 6
Sugarbeets plant response rating (sugar beet; [3]): 2
Plant response rating, Sugarbeets (sugar beet; [4]): 4
Sugarbeets plant response rating (sugar beet; [5]): 4
Sugarbeets plant response rating (sugar beet; [7]): 7
Sugarbeets plant response rating (sugar beet; [8]): 7
Plant response rating, Cocklebur (cocklebur; [1]): 0
Cocklebur plant response rating (cocklebur; [2]): 2
Cocklebur plant response rating (cocklebur; [3]): 0
Plant response rating, Cocklebur (cocklebur; [4]): 0
Cocklebur plant response rating (cocklebur; [5]): 0
Plant response rating, Cocklebur (cocklebur; [6]): 0
Cocklebur plant response rating (cocklebur; [7]): 2
Cocklebur plant response rating (cocklebur; [8]): 3
Plant response rating, Morningglory (morningglory; [1]): 0
Morningglory plant response rating (morningglory; [3]): 0
Plant response rating, Morningglory (morningglory; [4]): 2
Morningglory plant response rating (morningglory; [5]): 0
Morningglory plant response rating (morningglory; [7]): 2
Morningglory plant response rating (morningglory; [8]): 2
Plant response rating, B. signalgrass (surinam grass; [1]): 2
B. signalgrass plant response rating (surinam grass; [2]): 2
B. signalgrass plant response rating (surinam grass; [3]): 7
Plant response rating, B. signalgrass (surinam grass; [4]): 9
B. signalgrass plant response rating (surinam grass; [5]): 10
Plant response rating, B. signalgrass (surinam grass; [6]): 10
B. signalgrass plant response rating (surinam grass; [7]): 6
B. signalgrass plant response rating (surinam grass; [8]): 6
Plant response rating, Nutsedge (purple nutsedge; [1]): 0
Nutsedge plant response rating (purple nutsedge; [2]): 0
Nutsedge plant response rating (purple nutsedge; [3]): 0
Plant response rating, Nutsedge (purple nutsedge; [4]): 0
Nutsedge plant response rating (purple nutsedge; [5]): 0
Nutsedge plant response rating (purple nutsedge; [7]): 5
Nutsedge plant response rating (purple nutsedge; [8]): 5
Plant response rating, Wheat (wheat; [1]): 0
Wheat plant response rating (wheat; [2]): 0
Wheat plant response rating (wheat; [3]): 0
Plant response rating, Wheat (wheat; [4]): 4
Wheat plant response rating (wheat; [5]): 6
Wheat plant response rating (wheat; [7]): 3
Wheat plant response rating (wheat; [8]): 6
Plant response rating, Corn (corn; [1]): 0
Corn plant response rating (corn; [2]): 0
Corn plant response rating (corn; [3]): 0
Plant response rating, Corn (corn; [4]): 0
Corn plant response rating (corn; [5]): 5
Corn plant response rating (corn; [7]): 0
Corn plant response rating (corn; [8]): 0
Plant response rating, Soybean (soybean; [1]): 2
Soybean plant response rating (soybean; [2]): 4
Soybean plant response rating (soybean; [3]): 0
Plant response rating, Soybean (soybean; [4]): 0
Soybean plant response rating (soybean; [5]): 0
Soybean plant response rating (soybean; [7]): 4
Soybean plant response rating (soybean; [8]): 3
Bedstraw plant response rating (bedstraw; [2]): 3
Bedstraw plant response rating (bedstraw; [3]): 0
Plant response rating, Bedstraw (bedstraw; [4]): 8
Bedstraw plant response rating (bedstraw; [5]): 9
Plant response rating, Giant foxtail (giant foxtail; [1]): 6
Giant foxtail plant response rating (giant foxtail; [2]): 6
Giant foxtail plant response rating (giant foxtail; [3]): 10
Plant response rating, Giant foxtail (giant foxtail; [4]): 10
Giant foxtail plant response rating (giant foxtail; [5]): 10
Giant foxtail plant response rating (giant foxtail; [7]): 7
Giant foxtail plant response rating (giant foxtail; [8]): 8
Plant response rating, Velvetleaf (velvetleaf; [1]): 2
Velvetleaf plant response rating (velvetleaf; [2]): 2
Velvetleaf plant response rating (velvetleaf; [3]): 6
Plant response rating, Velvetleaf (velvetleaf; [4]): 5
Velvetleaf plant response rating (velvetleaf; [5]): 2
Velvetleaf plant response rating (velvetleaf; [7]): 2
Velvetleaf plant response rating (velvetleaf; [8]): 3
